The subject of data set [1] is A549 cells. Kind of data set: FITC Annexin V/PI apoptosis detection by flow cytometry. Type of data set: cell-based, human. As to conditions: for Early apoptotic cells % / Late apoptotic cells % / Necrosis % / Viable cells% / apoptotic activity: at IC50 concentrations; for apoptotic activity: early plus late apoptotic cells; for apoptosis induction: flow cytometry, result in words. As for the experimental part:
The cells incubated with the compounds were centrifuged at 400 × g for 5 minutes in labeled tubes and washed twice with 1xPBS. Then, the cells were suspended in 1×Annexin-V binding solution at 1×10^6 cells/mL and 100 µL of this cell solution was taken and transferred to tubes. The cells were treated with 5 µL Annexin V FITC and 5 µL of propidium iodide (PI) dyes. Then, the cells were kept at room temperature in the dark for 15 minutes to allow the dye to bind. 400 µL of 1×Annexin-V binding cell solution was transferred to flow cytometry tubes and the amount of early and late apoptotic cells was determined relative to the positive control using the BD FACSAria flow cytometer FACSDiva version 6.1.1 software.
A general note: In flow cytometry, cells or beads pass a laser one at a time.

The test system of data set [2] is A549 human lung adenocarcinoma cells. Kind of data set: MTT cytotoxicity assay. It counts as cell-based. As to conditions: for IC50: Homo sapiens, A549, MTT, 24 hours, read-out: IC50 values A549 cell line; for SI values: SI= IC50 for NIH/3T3 cell line / IC50 for A549 cell line. The protocol:
(§1) In order to be used from this stock, the concentrations ranging from 0.12 to 500 µg/mL (with the highest DMSO ratio of 0.1%) were prepared.
A549 human lung adenocarcinoma cells (ATCC® CCL-185™) were grown in RPMI 1640 medium supplemented with 10% fetal bovine serum, 1% penicillin/streptomycin, in an incubator with carbon dioxide, in a culture medium at 37°C at 95% relative humidity.
(§2) MTT protocol was applied to determine cell viability. […] At the end of the incubation period, 20 µL of MTT dye (5 mg/mL) was added into each well, and the cells were incubated for an additional 4 hours at 37°C. After this process, MTT dye was removed from the cells, 200 µL of DMSO was added to each well and left to incubate for 10 minutes. Color change was detected at 540 nm in the ELx808-IU Bio-Tek plate reader. Inhibition% values were determined for each concentration of compounds. Inhibitory concentration 50 (IC50) values of the compounds were calculated by drawing a dose-response curve with their concentrations against these values. All experiments were carried out in triplicate. The results were given as mean±standard deviation. Inhibition% = 100−[(ODtest compound−ODblank/ODsolvent control−ODblank)×100] [formula]
Selective index (SI) values were determined using the following formula. SI […] IC50 for NIH/3T3 cell line/IC50 for A549 cell line [formula]
Background: Tetrazolium dyes change colour on reduction, which living cells bring about.

The subject of data set [3] is NIH/3T3 mouse embryonic fibroblast cells. Description: MTT cytotoxicity assay. As to conditions: Mus musculus, NIH3T3, 24 hours, read-out: IC50 values NIH/3T3 cell line. It counts as cell-based. The protocol:
as §1
NIH/3T3 mouse embryonic fibroblast cells (ATCC® CRL-1658™) were grown in DMEM medium supplemented with 10% fetal bovine serum, 1% penicillin/streptomycin, in an incubator with carbon dioxide, in a culture medium at 37°C at 95% relative humidity.
as §2

For data set [4], the system named is Akt. Description: Akt activity assay (Akt colorimetric in cell ELISA). Type of data set: cell-based, human. Particulars: for Inhibition % / IC50 value (Akt inhibitory effects): 24 hours; for Akt inhibitory effects: result in words. The protocol:
Briefly, the media was removed from the wells and 100 µL of 4% formaldehyde was added. The plate was incubated for 15 minutes in a fume hood. Formaldehyde was removed and the plate was washed twice with 1X […] solution (TBS) to 100 µL/well. 1X TBS was removed and 100 µL of 1X permeabilization buffer was added to each well and left at room temperature for 15 minutes. After removing the 1X permeabilization buffer, the wells were washed once with 100 µL of 1X TBS. 1X TBS was removed and 100 µL of the quenching solution was added to the wells and left at room temperature for 20 minutes. Then, this solution was removed. The plate was washed once with 1X TBS, 100 µL of blocking buffer was added to the wells and left at room temperature for 30 minutes. At the end of this period, the blocking buffer was removed and 50 µL of primary antibody was added to the wells. The plate was closed with a sealer and incubated overnight at 4°C. The primary antibody was removed and plate wells were washed three times with 100 µL of wash buffer. After removing the wash buffer, 100 µL of diluted horseradish peroxidase (HRP) conjugate was added to the wells. It was incubated for 30 minutes at room temperature. After removing this conjugate, 100 µL of 3,3',5,5'-tetramethylbenzidine (TMB) stop solution was added and absorbance was measured at 450 nm for 30 minutes. The experiment was carried out in triplicate. The values of the blank wells were subtracted from the values of the untreated control and treated cells. The Akt activity% was determined as the relative absorbance of treated versus untreated control cells.

Each structure is given as a SMILES string. ≈ marks a conversion by molar mass, not a printed value.

With `Nn1c(CCc2cccnc2)nnc1SCC(=O)Nc1nc2ccc(Cl)cc2s1` [Compound 3d, 2-((4-Amino-5-(2-(pyridine-3-yl)ethyl)-4H-1,2,4-triazole-3-yl)thio)-N-(6-chlorobenzothiazole-2-yl)acetamide], in data set [1], the “Early apoptotic cells %” value is reported as 1.8%, the “Late apoptotic cells %” value was 6.3%, the Necrosis % worked out at 4.8% and the Viable cells% is 87.2%. Further, in data set [1], the apoptotic activity is on record as 8.1% and the apoptosis induction entry is given as “induce apoptosis”. Besides, in data set [2], the IC50 is 0.34 ± 0.02 µg/mL (≈ 0.762 µM) and the SI values was determined as 14.41. Further, the IC50 in data set [3] amounted to 4.9 ± 0.36 µg/mL (≈ 11 µM). The compound also returned an Inhibition % in data set [4] (0.98 µg/mL) of 80.23±7.70%. The same compound returned an Inhibition % in data set [4] (1.95 µg/mL) of 76.94±10.75%. Besides, the Inhibition % in data set [4] (3.90 µg/mL) is 100.00%. For the same compound, the “IC50 value (Akt inhibitory effects)” value in data set [4] amounted to 0.19 ± 0.05 µg/mL (≈ 0.426 µM).
Take `Nn1c(CCc2cccnc2)nnc1SCC(=O)Nc1nc2ccc(F)cc2s1` [Compound 3c, 2-((4-Amino-5-(2-(pyridine-3-yl)ethyl)-4H-1,2,4-triazole-3-yl)thio)-N-(6-fluorobenzothiazole-2-yl)acetamide]: in data set [1], the “Early apoptotic cells %” value is 0.5%, the “Late apoptotic cells %” value is listed as 3.7%, the Necrosis % is 4.0% and the Viable cells% was determined as 91.8%. In addition, in data set [2], the IC50 is 0.27 ± 0.02 µg/mL (≈ 0.629 µM) and the SI values was 629.63. Moreover, in data set [3], the IC50 came out at 170 ± 17.3 µg/mL (≈ 396 µM). In data set [4] (0.07 µg/mL), the Inhibition % is on record as 15.28±5.56%. This compound had an Inhibition % in data set [4] (0.14 µg/mL) of 36.64±13.39%. Moreover, the Inhibition % in data set [4] (0.27 µg/mL) is on record as 39.84±6.49%. The Akt inhibitory effects result in data set [4] is on record as “did not show significant Akt inhibitory effects”.
On to `Cc1ccc2nc(NC(=O)CSc3nnc(CCc4cccnc4)n3N)sc2c1` [Compound 3f, 2-((4-Amino-5-(2-(pyridine-3-yl)ethyl)-4H-1,2,4-triazole-3-yl)thio)-N-(6-methylbenzothiazole-2-yl)acetamide], for which, in data set [1], the “Early apoptotic cells %” value turned out to be 1.9%, the “Late apoptotic cells %” value came to 7.7%, the Necrosis % is 5.8% and the Viable cells% is 84.6%. In data set [1], the apoptotic activity is 9.6% and the apoptosis induction entry is listed as “induce apoptosis”. In data set [2], the IC50 was 6.5 ± 0.5 µg/mL (≈ 15.3 µM) and the SI values is recorded as more than 76.92. In data set [3], the IC50 is more than 500 µg/mL. This compound gave an Inhibition % in data set [4] (3.25 µg/mL) of 37.59±9.46%. This compound also had an Inhibition % in data set [4] (6.50 µg/mL) of 40.29±11.27%. Besides, the Akt inhibitory effects entry in data set [4] is “did not show significant Akt inhibitory effects”.
On to `Clc1ccc(C2=Nn3c(CCc4cccnc4)nnc3SC2)cc1` [Compound 2d, 6-(4-chlorophenyl)-3-(2-(pyridine-3-yl)ethyl)-7H-[1,2,4]triazolo[3,4-b][1,3,4]thiadiazine], for which, in data set [1], the “Early apoptotic cells %” value was found to be 2.4%, the “Late apoptotic cells %” value was found to be 3.8%, the Necrosis % came to 1.3% and the Viable cells% worked out at 92.5%. Further, in data set [1], the apoptosis induction entry was “induce apoptosis”. In data set [2], the IC50 was found to be 15.8 ± 0.35 µg/mL (≈ 44.3 µM) and the SI values is given as more than 31.75. For the same compound, the IC50 in data set [3] was more than 500 µg/mL. Also, in data set [4] (3.94 µg/mL), the Inhibition % came out at 80.33±19.71%. For the same compound, the Inhibition % in data set [4] (7.88 µg/mL) was 99.07±1.86%. In data set [4] (15.75 µg/mL), this compound returned an Inhibition % of 90.41±7.17%. Further, in data set [4], the “IC50 value (Akt inhibitory effects)” value is 0.80 ± 0.10 µg/mL (≈ 2.25 µM).
With `Fc1ccc(C2=Nn3c(CCc4cccnc4)nnc3SC2)cc1` [Compound 2c, 6-(4-fluorophenyl)-3-(2-(pyridine-3-yl)ethyl)-7H-[1,2,4]triazolo[3,4-b][1,3,4]thiadiazine], in data set [1], the “Early apoptotic cells %” value is given as 1.8%, the “Late apoptotic cells %” value worked out at 6.0%, the Necrosis % stood at 4.6% and the Viable cells% stood at 87.6%. Further, in data set [1], the apoptotic activity amounted to 7.8% and the apoptosis induction result is “induce apoptosis”. Also, in data set [2], the IC50 came to 11.8 ± 2.25 µg/mL (≈ 34.9 µM) and the SI values is more than 42.27. Moreover, the IC50 in data set [3] is more than 500 µg/mL. This compound also showed an Inhibition % in data set [4] (2.95 µg/mL) of 54.17±26.41%. The same compound came in with an Inhibition % in data set [4] (5.92 µg/mL) of 73.98±8.55%. Further, the Inhibition % in data set [4] (11.83 µg/mL) was found to be 82.60±2.88%. The “IC50 value (Akt inhibitory effects)” value in data set [4] is 2.95 ± 0.05 µg/mL (≈ 8.69 µM).
As for `c1cncc(CCc2nnc3n2N=C(c2ccc4ccccc4c2)CS3)c1` [Compound 2j, 6-(Naphthalene-2-yl)-3-(2-(pyridine-3-yl)ethyl)-7H-[1,2,4]triazolo[3,4-b][1,3,4] thiadiazine], in data set [1], the “Early apoptotic cells %” value is 1.0%, the “Late apoptotic cells %” value turned out to be 3.6%, the Necrosis % came to 5.0% and the Viable cells% came out at 90.3%. Besides, in data set [2], the IC50 is 4 µg/mL (≈ 10.8 µM) and the SI values was determined as 1.67. Further, the IC50 in data set [3] is 6.66 ± 1.04 µg/mL (≈ 17.9 µM). Further, the Inhibition % in data set [4] (2.0 µg/mL) turned out to be 17.80±2.08%. Also, the Inhibition % in data set [4] (4.0 µg/mL) came out at 48.23±7.29%. The Akt inhibitory effects entry in data set [4] was “did not show significant Akt inhibitory effects”.
`c1ccc(C2=Nn3c(CCc4cccnc4)nnc3SC2)cc1` [Compound 2a, 6-Phenyl-3-(2-(pyridine-3-yl)ethyl)-7H-[1,2,4]triazolo[3,4-b][1,3,4]thiadiazine]: in data set [1], the “Early apoptotic cells %” value is on record as 1.7%, the “Late apoptotic cells %” value came out at 2.7%, the Necrosis % is listed as 0.7% and the Viable cells% was determined as 95.0%. In data set [2], the IC50 came to 7.23 ± 1.62 µg/mL (≈ 22.5 µM) and the SI values is recorded as more than 69.16. Moreover, the IC50 in data set [3] was more than 500 µg/mL. This compound came in with an Inhibition % in data set [4] (1.81 µg/mL) of 8.75±2.77%. In data set [4] (3.62 µg/mL), this compound came in with an Inhibition % of 7.69±2.91%. For the same compound, the Inhibition % in data set [4] (7.23 µg/mL) is given as 35.45±5.82%. In addition, the Akt inhibitory effects result in data set [4] was “did not show significant Akt inhibitory effects”.
For `Nn1c(CCc2cccnc2)nnc1SCC(=O)Nc1nc2ccccc2s1` [Compound 3b, 2-((4-Amino-5-(2-(pyridine-3-yl)ethyl)-4H-1,2,4-triazole-3-yl)thio)-N-(benzothiazole-2-yl)acetamide], in data set [1], the “Early apoptotic cells %” value was found to be 0.7%, the “Late apoptotic cells %” value amounted to 3.0%, the Necrosis % is given as 3.2% and the Viable cells% came to 93.1%. Also, in data set [2], the IC50 worked out at 0.68 ± 0.18 µg/mL (≈ 1.65 µM) and the SI values was determined as 34.31. The IC50 in data set [3] was determined as 23.3 ± 6.11 µg/mL (≈ 56.7 µM). Moreover, in data set [4] (0.98 µg/mL), the Inhibition % is 14.58±4.29%. The Inhibition % in data set [4] (3.90 µg/mL) came out at 72.89±5.45%. In data set [4], the “IC50 value (Akt inhibitory effects)” value amounted to 2.23 ± 0.12 µg/mL (≈ 5.42 µM).
